# Measurements as given in publication PMC12384620, “Hit-to-Lead Studies of Pyrazinylpiperazines against Visceral Leishmaniasis: Pharmacokinetic Profile and In Vivo Efficacy of Potent Compounds against Leishmania infantum” (ACS Pharmacology & Translational Science, 2025).
# Experiments:
# L. infantum = experiment: Antileishmanial activity against L. infantum amastigotes in THP-1 macrophages; assay type: cell-based; conditions: Leishmania infantum; growth of L. infantum in THP-1 macrophages, 72 h
# Procedure: The in vitro anti-L. infantum activity (IC50) of each compound was evaluated on THP-1 cells (human leukemia monocytic cell line) infected with L. infantum promastigotes, and the in vitro cytotoxicity (CC50) was determined over the THP-1 cell line. The selectivity index (SI) was calculated as the ratio of the CC50 value determined in the cytotoxicity assay, divided by the IC50 value determined in the antileishmanial activity assay.
# Cells derived from the human monocytic strain THP-1 were cultured in complete Rowell Park Memorial Institute (RPMI)-1640 medium (supplemented with 10% fetal bovine serum, 100 U/mL penicillin, and 100 μg/mL streptomycin). Monocytes were differentiated into macrophages by the addition of 20 ng/mL phorbol myristate acetate (PMA). After 72 h, the macrophages (5 × 10^4), in black 96-well microtiter plates (Corning Incorporated, Corning, NY), were infected with Leishmania (Leishmania) infantum (MHOM/BR/1974/PP75) promastigotes transfected with gene tdTomato, on the second day of the stationary phase (20 parasites per macrophage) for 4 h. […] The IC50 values were determined by nonlinear regression using a variable slope model (log(concentration) vs growth inhibition) with the GraphPadPrism v8.2.0 (CA, USA) software. Controls with uninfected cells, untreated infected cells, and infected cells treated with amphotericin B at 0.25 μM (positive control) or DMSO 1% were used. Quadruplicates were run on the same plate, and the experiments were repeated at least once.
# L. braziliensis = experiment: Inhibition of growth of L. braziliensis in THP-1 macrophages; assay type: cell-based; conditions: Leishmania braziliensis
# Description: 1 In Vitro Antileishmanial Potency, Selectivity Index, and ADME Properties of Compounds 1 – 6 | column: L. braziliensis IC50 (μM)^b (SI)^b
# [1] = PAMPA gastrointestinal tract permeability; assay type: in vitro ADME; conditions: for Papp at 8 h, 0.5 mM: PAMPA-GI, read-out: GI Pe
# Procedure: A 10 mM solution of each compound in DMSO was prepared and subsequently homogenized in a 5 mL flask with 4.75 mL PBS (pH 6.6) (10 mM). […] 180 μL of a PBS (pH 7.4)/DMSO (95:5) solution were then added to the wells of a 96-well receiver plate, and 5 μL of a L-α-phosphatidylcholine solution (20 mg/mL in dodecane) to the wells of a 96-well donor plate. After 5 min, 180 μL of the solutions containing each compound were added to the wells of the donor plate, in triplicate, and the donor plate was carefully placed over the receiver plate in a “sandwich-like” system, which was left stirring (50 rpm) for 8 h at rt in a sealed vessel containing 10 mL PBS (pH 7.4). Afterward, the donor plate was removed, and the content of the receiver plate was transferred to a UV reading plate, which was read using a microplate reader (SpectraMax 5 – Molecular Devices). A reference sample for the internal correction of the microplate reader was prepared using 180 μL of the PBS (pH 7.4)/DMSO (95:5) solution (adapted from refs and ). The optical density values obtained from the content of the receiver plate were compared with the ones obtained from readings performed with the initial solutions containing each compound, before their addition to the donor plate. […] The optical density values from the receptor plate were compared to those from experimental controls to determine the F a value for each compound, using Microsoft Excel.
# L. infantum GSK-3B = experiment: GSK-3B enzyme inhibition (LANCE TR-FRET); assay type: biochemical; conditions: concentrations up to 30 μM, 10 nM enzyme
# Procedure: The following controls were included: protein in 1% DMSO (100% activity), 10 μM AZD-5438 (0% activity), and buffer without enzyme (blank).
# To detect the progress of the enzymatic reaction, a commercially available TR-FRET-based assay (LANCE TR-FRET, PerkinElmer) was used. In the enzymatic step, purified protein kinase and the peptide substrate were incubated with compounds 1 – 6 for 30 min at 25 °C before the addition of ATP to start the reaction, which was run at 30 °C (2 h for GSK-3A or 1 h 15 min for GSK-3B). […]. […]
# The fluorescence signal was measured using a CLARIOstar microplate reader (BMG LABTECH) set with an excitation wavelength of 320 nm and an emission wavelength of 665 nm. MARS software (BMG LABTECH) was used to analyze the data obtained after reading each plate. The background fluorescence signal (blank) was subtracted from the fluorescence signal obtained for each reaction, in order to reflect the specific signal of enzymatic activity. The data was then analyzed with the GraphPad Prism v10 software, using the equation “log(inhibitor) vs response - variable slope (four parameters) - Y = Bottom + (Top-Bottom)/(1 + 10̂((LogIC50-X)* HillSlope))” to obtain dose–response curves and determine IC50 values. […]
# L. braziliensis SOD = experiment: SOD interaction by differential scanning fluorimetry; assay type: binding, Leishmania braziliensis
# Procedure: The assays were performed using an Applied Biosystems 7500 Fast RT-PCR system (Applied Biosystems, Foster City, CA, USA), in triplicate, with 96-well PCR plates (BioRad, Hercules, CA, USA) sealed with transparent capping strips (BioRad, Hercules, CA, USA). The plates were centrifugated for 2 min at 2000 rpm at 25 °C. The temperature was then ramped up from 25 to 85 °C, increasing 1 °C per minute, while fluorescence signals were monitored using SYPRO Orange dye, with an excitation wavelength of 492 nm and an emission wavelength of 610 nm.
# The DSF conditions used in this study have been previously described. , Briefly, each well contained 10 μM L. braziliensis Hsp90 or 5 μM L. braziliensis SOD, 1 μL of 5X SYPRO Orange, buffer A (50 mM PBS, 100 mM NaCl, pH 7.0 for L. braziliensis SOD or 50 mM Tris-HCl, 100 mM KCl, pH 8.0 for L. braziliensis Hsp90), and either 1 μL DMSO (5% v/v, negative control) or 1 – 6 (diluted in DMSO). […] Raw fluorescence data was collected using the Applied Biosystems 7500 Fast Software v2.0 and then exported to NAMI for Tm calculation via the first-derivative method. Differences in Tm values (ΔTm) were considered statistically significant when p < 0.05, as determined by the Kruskal–Wallis test followed by Dunn’s post-test for multiple comparisons, performed using GraphPad Prism 10.0 (GraphPad Software, San Diego, CA, USA, www.graphpad.com).
Compound,IC50 (L. infantum) [µM],IC50 (L. braziliensis) [µM],"Fa, fraction absorbed (GI) [1] [%]","Papp at 8 h, 0.5 mM [1] [×10⁻⁶ cm/s]",inhibition of L. infantum GSK-3B (L. infantum GSK-3B),interaction with L. braziliensis SOD (DSF titration curves) (L. braziliensis SOD; 100 μM to 12.5 μM),effect on Tm of L. braziliensis SOD (DSF) (L. braziliensis SOD; 100 μM)
"O=C(c1ccc(O)c(Cl)c1)N1CCN(c2cnccn2)CC1 [Compound 1, (3-Chloro-4-hydroxyphenyl)(4-(pyrazin-2-yl)piperazin-1-yl)methanone]",11.9 ± 2.2,11.7 ± 0.7,99.26,12.9,did not exert any inhibition,neither of these compounds interacts,–
"O=C(c1ccc(O)cc1)N1CCN(c2cnccn2)CC1 [Compound 2, (4-Hydroxyphenyl)(4-(pyrazin-2-yl)piperazin-1-yl)methanone]",3.1 ± 1.3,7.6 ± 3.2,62.71,2.59,no inhibitory effect,–,failed to exert statistically significant effects
